Our source for the EC50 values is US10894817B2, “Fatty acid modified urocortin-2 analogs for the treatment of diabetes and chronic kidney disease” (priority 2016, dated 2021).

Molecules are shown by their SMILES. Starred links: 1 amine or outer side, 2 acyl side, 3 side chain; linkers in the order of their positions; H or OH if unused. Non-standard residues stand in square brackets, D forms with d. Residues, ends and D or L forms follow the SMILES beside them. Groups on a side chain read outwards from the residue. *: point of attachment. C20 diacid = O=C(O)CCCCCCCCCCCCCCCCCCC(=O)*; γGlu = O=C(O)[C@H](CCC(=O)[*:2])N[*:1]; NMeI = CC[C@H](C)[C@H](NC)C(=O)O; AEEA = NCCOCCOCC(=O)O

In this test the target is T1, human CRHR2b (Homo sapiens, UniProt Q13324).
T1 construct: expressed in transfected cells; host or cells: Chinese Hamster Ovary (CHO) cells, transient transfection
T1 sequence (Q13324 1-438 isoform Q13324-2): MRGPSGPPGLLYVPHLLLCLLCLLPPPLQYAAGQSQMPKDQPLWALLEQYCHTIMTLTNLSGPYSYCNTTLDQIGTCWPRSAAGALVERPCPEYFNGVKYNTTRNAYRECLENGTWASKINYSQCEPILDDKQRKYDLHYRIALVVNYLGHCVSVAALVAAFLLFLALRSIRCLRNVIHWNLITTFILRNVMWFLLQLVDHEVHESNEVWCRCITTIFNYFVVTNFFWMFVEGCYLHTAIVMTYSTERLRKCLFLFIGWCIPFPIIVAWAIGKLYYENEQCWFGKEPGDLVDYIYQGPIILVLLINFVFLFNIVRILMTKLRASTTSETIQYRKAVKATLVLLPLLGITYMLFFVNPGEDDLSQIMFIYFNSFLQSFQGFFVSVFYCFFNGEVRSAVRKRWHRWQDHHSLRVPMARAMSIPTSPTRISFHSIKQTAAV
The test can be described thus: human CRHR2b cell-based cAMP assay. As to conditions: cAMP assay; Table 26, compounds of Example 9; read-out: hCRHR2b Average EC50. In outline:
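ED50 values are means ± SEM over several runs, curve-fitted from cAMP in pmol, calibrated against unlabeled-cAMP standards. Detection was HTRF competition, ratio 665/620 nm, after 30 min agonist exposure at 37 °C.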
Turning to `CC[C@H](C)[C@H](NC)C(=O)N[C@H](C(=O)N[C@@H](CC(C)C)C(=O)N[C@@H](CO)C(=O)N[C@@H](CC(C)C)C(=O)N[C@@H](CC(=O)O)C(=O)N[C@H](C(=O)N1CCC[C@H]1C(=O)N[C@H](C(=O)NCC(=O)N[C@@H](CC(C)C)C(=O)N[C@@H](CC(C)C)C(=O)N[C@@H](CCC(N)=O)C(=O)N[C@H](C(=O)N[C@@H](CC(C)C)C(=O)N[C@@H](CC(C)C)C(=O)N[C@@H](CCC(=O)O)C(=O)N[C@@H](CCC(N)=O)C(=O)N[C@@H](CCC(=O)O)C(=O)N[C@@H](CCCCN)C(=O)N[C@@H](CCC(N)=O)C(=O)N[C@@H](CCC(=O)O)C(=O)N[C@@H](CCCCN)C(=O)N[C@@H](CCC(=O)O)C(=O)N[C@@H](CCCCN)C(=O)N[C@@H](CCC(N)=O)C(=O)N[C@@H](CCC(N)=O)C(=O)N[C@@H](C)C(=O)N[C@@H](CCCCNC(=O)CC[C@H](NC(=O)COCCOCCNC(=O)CC[C@H](NC(=O)CC[C@H](NC(=O)CCCCCCCCCCCCCCCCCCC(=O)O)C(=O)O)C(=O)O)C(=O)O)C(=O)N[C@@H](CCC(=O)O)C(=O)N[C@@H](CC(N)=O)C(=O)N[C@@H](C)C(=O)N[C@@H](CCC(=O)O)C(=O)N[C@H](C(=O)N[C@@H](CC(C)C)C(=O)N[C@@H](C)C(=O)N[C@@H](CCC(N)=O)C(=O)N[C@H](C(N)=O)C(C)C)[C@@H](C)CC)[C@@H](C)CC)[C@@H](C)CC)C(C)C)C(C)C` [Compound 59] (H-[NMeI]VLSLDVPIGLLQILLEQEKQEKEKQQAK([γGlu-AEEA-γGlu-γGlu-C20 diacid])ENAEILAQV-NH2), the EC50 amounted to 2.62 nM.
The figure for `CC[C@H](C)[C@H](NC)C(=O)N[C@H](C(=O)N[C@@H](CC(C)C)C(=O)N[C@@H](CO)C(=O)N[C@@H](CC(C)C)C(=O)N[C@@H](CC(=O)O)C(=O)N[C@H](C(=O)N1CCC[C@H]1C(=O)N[C@H](C(=O)NCC(=O)N[C@@H](CC(C)C)C(=O)N[C@@H](CC(C)C)C(=O)N[C@@H](CCC(N)=O)C(=O)N[C@H](C(=O)N[C@@H](CC(C)C)C(=O)N[C@@H](CC(C)C)C(=O)N[C@@H](CCC(=O)O)C(=O)N[C@@H](CCC(N)=O)C(=O)N[C@@H](CCC(=O)O)C(=O)N[C@@H](CCCCN)C(=O)N[C@@H](CCC(N)=O)C(=O)N[C@@H](CCC(=O)O)C(=O)N[C@@H](CCCCN)C(=O)N[C@@H](CCC(=O)O)C(=O)N[C@@H](CCCCN)C(=O)N[C@@H](CCC(N)=O)C(=O)N[C@@H](CCC(N)=O)C(=O)N[C@@H](C)C(=O)N[C@@H](CCCCNC(=O)CC[C@H](NC(=O)COCCOCCNC(=O)COCCOCCNC(=O)CC[C@H](NC(=O)CC[C@H](NC(=O)CCCCCCCCCCCCCCCCCCC(=O)O)C(=O)O)C(=O)O)C(=O)O)C(=O)N[C@H](C(=O)N[C@@H](CC(N)=O)C(=O)N[C@@H](C)C(=O)N[C@@H](CCC(N)=O)C(=O)N[C@H](C(=O)N[C@@H](CC(C)C)C(=O)N[C@@H](C)C(=O)N[C@@H](CCC(N)=O)C(=O)N[C@H](C(N)=O)C(C)C)[C@@H](C)CC)[C@@H](C)O)[C@@H](C)CC)[C@@H](C)CC)C(C)C)C(C)C` [Compound 60] (H-[NMeI]VLSLDVPIGLLQILLEQEKQEKEKQQAK([γGlu-AEEA-AEEA-γGlu-γGlu-C20 diacid])TNAQILAQV-NH2) is 2.55 nM.
As for `CC[C@H](C)[C@H](NC)C(=O)N[C@H](C(=O)N[C@@H](CC(C)C)C(=O)N[C@@H](CO)C(=O)N[C@@H](CC(C)C)C(=O)N[C@@H](CC(=O)O)C(=O)N[C@H](C(=O)N1CCC[C@H]1C(=O)N[C@H](C(=O)NCC(=O)N[C@@H](CC(C)C)C(=O)N[C@@H](CC(C)C)C(=O)N[C@@H](CCC(N)=O)C(=O)N[C@H](C(=O)N[C@@H](CC(C)C)C(=O)N[C@@H](CC(C)C)C(=O)N[C@@H](CCC(=O)O)C(=O)N[C@@H](CCC(N)=O)C(=O)N[C@@H](CCC(=O)O)C(=O)N[C@@H](CCCCN)C(=O)N[C@@H](CCC(N)=O)C(=O)N[C@@H](CCC(=O)O)C(=O)N[C@@H](CCCCN)C(=O)N[C@@H](CCC(=O)O)C(=O)N[C@@H](CCCCN)C(=O)N[C@@H](CCC(N)=O)C(=O)N[C@@H](CCC(N)=O)C(=O)N[C@@H](C)C(=O)N[C@@H](CCCCNC(=O)CC[C@H](NC(=O)COCCOCCNC(=O)CC[C@H](NC(=O)CC[C@H](NC(=O)CCCCCCCCCCCCCCCCCCC(=O)O)C(=O)O)C(=O)O)C(=O)O)C(=O)N[C@H](C(=O)N[C@@H](CC(N)=O)C(=O)N[C@@H](C)C(=O)N[C@@H](CCC(N)=O)C(=O)N[C@H](C(=O)N[C@@H](CC(C)C)C(=O)N[C@@H](C)C(=O)N[C@@H](CCC(N)=O)C(=O)N[C@H](C(N)=O)C(C)C)[C@@H](C)CC)[C@@H](C)O)[C@@H](C)CC)[C@@H](C)CC)C(C)C)C(C)C` [Compound 61] (H-[NMeI]VLSLDVPIGLLQILLEQEKQEKEKQQAK([γGlu-AEEA-γGlu-γGlu-C20 diacid])TNAQILAQV-NH2), the figure is 2.5 nM; as for `CC[C@H](C)[C@H](NC)C(=O)N[C@H](C(=O)N[C@@H](CC(C)C)C(=O)N[C@@H](CO)C(=O)N[C@@H](CC(C)C)C(=O)N[C@@H](CC(=O)O)C(=O)N[C@H](C(=O)N1CCC[C@H]1C(=O)N[C@H](C(=O)NCC(=O)N[C@@H](CC(C)C)C(=O)N[C@@H](CC(C)C)C(=O)N[C@@H](CCC(N)=O)C(=O)N[C@H](C(=O)N[C@@H](CC(C)C)C(=O)N[C@@H](CC(C)C)C(=O)N[C@@H](CCC(=O)O)C(=O)N[C@@H](CCC(N)=O)C(=O)N[C@@H](CCC(=O)O)C(=O)N[C@@H](CCCCN)C(=O)N[C@@H](CCC(N)=O)C(=O)N[C@@H](CCC(=O)O)C(=O)N[C@@H](CCCCN)C(=O)N[C@@H](CCC(=O)O)C(=O)N[C@@H](CCCCN)C(=O)N[C@@H](CCC(N)=O)C(=O)N[C@@H](CCC(N)=O)C(=O)N[C@@H](C)C(=O)N[C@@H](CCCCNC(=O)CC[C@H](NC(=O)CC[C@H](NC(=O)COCCOCCNC(=O)COCCOCCNC(=O)CC[C@H](NC(=O)CC[C@H](NC(=O)CCCCCCCCCCCCCCCCCCC(=O)O)C(=O)O)C(=O)O)C(=O)O)C(=O)O)C(=O)N[C@H](C(=O)N[C@@H](CC(N)=O)C(=O)N[C@@H](C)C(=O)N[C@@H](CCC(N)=O)C(=O)N[C@H](C(=O)N[C@@H](CC(C)C)C(=O)N[C@@H](C)C(=O)N[C@@H](CCC(N)=O)C(=O)N[C@H](C(N)=O)C(C)C)[C@@H](C)CC)[C@@H](C)O)[C@@H](C)CC)[C@@H](C)CC)C(C)C)C(C)C` [Compound 62] (H-[NMeI]VLSLDVPIGLLQILLEQEKQEKEKQQAK([γGlu-γGlu-AEEA-AEEA-γGlu-γGlu-C20 diacid])TNAQILAQV-NH2), 4.5 nM.
As for `CC[C@H](C)[C@H](NC)C(=O)N[C@H](C(=O)N[C@@H](CC(C)C)C(=O)N[C@@H](CO)C(=O)N[C@@H](CC(C)C)C(=O)N[C@@H](CC(=O)O)C(=O)N[C@H](C(=O)N1CCC[C@H]1C(=O)N[C@H](C(=O)NCC(=O)N[C@@H](CC(C)C)C(=O)N[C@@H](CC(C)C)C(=O)N[C@@H](CCC(N)=O)C(=O)N[C@H](C(=O)N[C@@H](CC(C)C)C(=O)N[C@@H](CC(C)C)C(=O)N[C@@H](CCC(=O)O)C(=O)N[C@@H](CCC(N)=O)C(=O)N[C@@H](CCC(=O)O)C(=O)N[C@@H](CCCCN)C(=O)N[C@@H](CCC(N)=O)C(=O)N[C@@H](CCC(=O)O)C(=O)N[C@@H](CCCCN)C(=O)N[C@@H](CCC(=O)O)C(=O)N[C@@H](CCCCN)C(=O)N[C@@H](CCC(N)=O)C(=O)N[C@@H](CCC(N)=O)C(=O)N[C@@H](C)C(=O)N[C@@H](CCCCNC(=O)CC[C@H](NC(=O)CC[C@H](NC(=O)COCCOCCNC(=O)CC[C@H](NC(=O)CC[C@H](NC(=O)CCCCCCCCCCCCCCCCCCC(=O)O)C(=O)O)C(=O)O)C(=O)O)C(=O)O)C(=O)N[C@H](C(=O)N[C@@H](CC(N)=O)C(=O)N[C@@H](C)C(=O)N[C@@H](CCC(N)=O)C(=O)N[C@H](C(=O)N[C@@H](CC(C)C)C(=O)N[C@@H](C)C(=O)N[C@@H](CCC(N)=O)C(=O)N[C@H](C(N)=O)C(C)C)[C@@H](C)CC)[C@@H](C)O)[C@@H](C)CC)[C@@H](C)CC)C(C)C)C(C)C` [Compound 63] (H-[NMeI]VLSLDVPIGLLQILLEQEKQEKEKQQAK([γGlu-γGlu-AEEA-γGlu-γGlu-C20 diacid])TNAQILAQV-NH2), the figure is 1.3 nM; as for `CC[C@H](C)[C@H](NC)C(=O)N[C@H](C(=O)N[C@@H](CC(C)C)C(=O)N[C@@H](CO)C(=O)N[C@@H](CC(C)C)C(=O)N[C@@H](CC(=O)O)C(=O)N[C@H](C(=O)N1CCC[C@H]1C(=O)N[C@H](C(=O)NCC(=O)N[C@@H](CC(C)C)C(=O)N[C@@H](CC(C)C)C(=O)N[C@@H](CCC(N)=O)C(=O)N[C@H](C(=O)N[C@@H](CC(C)C)C(=O)N[C@@H](CC(C)C)C(=O)N[C@@H](CCC(=O)O)C(=O)N[C@@H](CCC(N)=O)C(=O)N[C@@H](CCC(=O)O)C(=O)N[C@@H](CCCCN)C(=O)N[C@@H](CCC(N)=O)C(=O)N[C@@H](CCC(=O)O)C(=O)N[C@@H](CCCCN)C(=O)N[C@@H](CCC(=O)O)C(=O)N[C@@H](CCCCN)C(=O)N[C@@H](CCC(N)=O)C(=O)N[C@@H](CCC(N)=O)C(=O)N[C@@H](C)C(=O)N[C@@H](CCCCNC(=O)CC[C@H](NC(=O)CC[C@H](NC(=O)CC[C@H](NC(=O)CC[C@H](NC(=O)CCCCCCCCCCCCCCCCCCC(=O)O)C(=O)O)C(=O)O)C(=O)O)C(=O)O)C(=O)N[C@H](C(=O)N[C@@H](CC(N)=O)C(=O)N[C@@H](C)C(=O)N[C@@H](CCC(N)=O)C(=O)N[C@H](C(=O)N[C@@H](CC(C)C)C(=O)N[C@@H](C)C(=O)N[C@@H](CCC(N)=O)C(=O)N[C@H](C(N)=O)C(C)C)[C@@H](C)CC)[C@@H](C)O)[C@@H](C)CC)[C@@H](C)CC)C(C)C)C(C)C` [Compound 64] (H-[NMeI]VLSLDVPIGLLQILLEQEKQEKEKQQAK([γGlu-γGlu-γGlu-γGlu-C20 diacid])TNAQILAQV-NH2), 1.63 nM.

A word on the EC50: it is the concentration that produces a half-maximal response.
